Reference: ChEMBL document CHEMBL3627713, “Triazole linked mono carbonyl curcumin-isatin bifunctional hybrids as novel anti tubulin agents: Design, synthesis, biological evaluation and molecular modeling studies” (Bioorg Med Chem, 2015)
The source made the active and inactive calls. No cut-off for these calls is given here.

Assays:
COLO 205 [1] = experiment: Cytotoxicity against human COLO205 cells assessed as growth inhibition at 50 uM after 48 hrs by sulforhodamine B assay relative to control; format: functional; details: COLO 205, 48 h, read-out: GI
HCT-116 [2] = experiment: Cytotoxicity against human HCT116 cells assessed as growth inhibition at 50 uM after 48 hrs by sulforhodamine B assay relative to control; format: functional; details: HCT-116, 48 h, read-out: GI
THP-1 [3] = experiment: Cytotoxicity against human THP1 cells assessed as growth inhibition after 48 hrs by sulforhodamine B assay; format: functional, cell-based; details: THP-1, 48 h
HCT-116 [4] = experiment: Disruption of microtubule organization in human HCT116 cells at 5 uM after 48 hrs by DAPI staining-based laser scanning confocal microscopic analysis; format: cell-based
THP-1 [5] = experiment: Cytotoxicity against human THP1 cells assessed as growth inhibition at 50 uM after 48 hrs by sulforhodamine B assay relative to control; format: functional; details: THP-1, 48 h, read-out: GI
PC-3 [6] = experiment: Cytotoxicity against human PC3 cells assessed as growth inhibition at 50 uM after 48 hrs by sulforhodamine B assay relative to control; format: functional; details: PC-3, 48 h, read-out: GI
A549 = experiment: Cytotoxicity against human A549 cells assessed as growth inhibition at 50 uM after 48 hrs by sulforhodamine B assay relative to control; format: functional; details: A549, 48 h, read-out: GI
PC-3 [7] = experiment: Cytotoxicity against human PC3 cells assessed as growth inhibition after 48 hrs by sulforhodamine B assay; format: functional, cell-based; details: PC-3, 48 h
[8] = Cytotoxicity against human MIAPaCa2 cells assessed as growth inhibition at 50 uM after 48 hrs by sulforhodamine B assay relative to control; format: functional; details: MIA PaCa-2, 48 h, read-out: GI
COLO 205 [9] = experiment: Cytotoxicity against human COLO205 cells assessed as growth inhibition after 48 hrs by sulforhodamine B assay; format: functional, cell-based; details: COLO 205, 48 h
HCT-116 [10] = experiment: Cytotoxicity against human HCT116 cells assessed as growth inhibition after 48 hrs by sulforhodamine B assay; format: functional, cell-based; details: HCT-116, 48 h
CAKI-1 = experiment: Cytotoxicity against human Caki1 cells assessed as growth inhibition at 50 uM after 48 hrs by sulforhodamine B assay relative to control; format: functional; details: CAKI-1, 48 h, read-out: GI
HeLa = experiment: Cytotoxicity against human HeLa cells assessed as growth inhibition at 50 uM after 48 hrs by sulforhodamine B assay relative to control; format: functional; details: read-out: GI
Tubulin = experiment: Inhibition of tubulin (unknown origin) polymerization after 1 hr by ELISA plate reader analysis; format: protein-complex assay, Homo sapiens

IC50 (Tubulin) [µM] | Structure (SMILES) | inhibition of growth at 50 µM (COLO 205 [1]) [%] | inhibition of growth at 50 µM (HCT-116 [2]) [%] | IC50 (THP-1 [3]) [µM] | Activity (HCT-116 [4]) | inhibition of growth at 50 µM (THP-1 [5]) [%] | inhibition of growth at 50 µM (PC-3 [6]) [%] | inhibition of growth at 50 µM (A549) [%] | IC50 (PC-3 [7]) [µM] | inhibition of growth at 50 µM [8] [%] | IC50 (COLO 205 [9]) [µM] | IC50 (HCT-116 [10]) [µM] | inhibition of growth at 50 µM (CAKI-1) [%] | inhibition of growth at 50 µM (HeLa) [%]
2.36 | COc1cc(/C=C/C(=O)/C=C/c2cc(OC)c(OC)c(OC)c2)ccc1OCc1cn(CCN2C(=O)C(=O)c3ccccc32)nn1 | 86 | 99 | 2.87 | Active | 89 | 85 | 22 | 5.67 | 25 | 4.15 | 1.12 | 25 | 20
5.41 | COc1ccc(/C=C/C(=O)/C=C/c2ccc(OCc3cn(CCN4C(=O)C(=O)c5ccccc54)nn3)c(OC)c2)cc1 | 72 | 81 | 4.96 |  | 75 | 70 | 15 | 8.95 | 17 | 6.72 | 3.45 | 20 | 15
